{"source": "patent US20100204470A1", "about": "“METHOD FOR SALT PREPARATION” (Sandoz AG, priority 2006, published 2010)", "key": {"[1]": {"experiment": "Storage in a dessicator at a humidity level of 33% (hygroscopicity, conversion to hydrous form)", "assay_type": "physicochemical", "excerpt": "The present invention also relates to a novel anhydrous hydrochloride salt of Moxifloxacin, herein called form IV. […] More particular, the invention relates to form IV characterized by an X-ray powder diffraction pattern with peaks at about 10.0, 13.2, 15.3, 17.2 and 24.4 degrees 2 theta. The invention also relates to form IV characterized by infrared absorption bands at about 2704, 1720, 1434, 1312 and 1273 cm^−1.\nThe new anhydrous form IV may preferably be prepared by desolvating Moxifloxacin hydrochloride methylene dichloride solvate by drying in vacuum at about 100° C. […] The invention also relates to pharmaceutical compositions comprising form IV."}, "[2]": {"experiment": "Stability of solvate under air drying conditions (desolvation)"}, "[3]": {"experiment": "General solubility / stability of the crystalline salt", "assay_type": "physicochemical", "settings": "qualitative statement"}, "[4]": {"settings": "anhydrous vs monohydrate hydrochloride; disclosed in WO 95/07902; cited from earlier work"}, "[5]": {"settings": "compared with monohydrate salt form; disclosed in WO 95/07902; cited from earlier work"}, "[6]": {"settings": "dessicator, humidity level 33%, 48 hours"}}, "note": "Structures can show the parent of a compound that is named as a salt.", "data": [{"compound": "COc1c(N2C[C@@H]3CCCN[C@@H]3C2)c(F)cc2c(=O)c(C(=O)O)cn(C3CC3)c12.Cl", "note": "[Moxifloxacine Hydrochloride Anhydrous Form IV]", "values": [{"measurement": "moisture content after humidity storage", "setting": "[1]; after 48 hours at humidity level 33%", "result": 0.6, "unit": "%"}, {"measurement": "hygroscopicity relative to other anhydrous forms", "setting": "[1]; compared with anhydrous form II (US 5849 752, Bayer) and anhydrous form B (WO 2005/054240, Chemi Spa)", "result": "lower hygroscopicity"}, {"measurement": "XRPD pattern after humidity storage", "setting": "[1]; [6]", "result": "no alteration"}, {"measurement": "conversion to a hydrous form", "setting": "[1]; [6]", "result": "does not convert to a hydrous form"}, {"measurement": "moisture content before humidity storage", "setting": "[1]; initial value", "result": 0.5, "unit": "%"}]}, {"compound": "Raloxifene Hydrochloride THF hemisolvate", "values": [{"measurement": "stability / desolvation under air drying conditions", "setting": "[2]", "result": "stable and does not desolvate"}]}, {"compound": "COc1c(N2C[C@@H]3CCCN[C@@H]3C2)c(F)cc2c(=O)c(C(=O)O)cn(C3CC3)c12", "note": "[Moxifloxacine hydrochloride]", "values": [{"measurement": "solubility and/or stability", "setting": "[3]", "result": "good solubility and/or stability"}]}, {"compound": "COc1c(C)c2c(c(O)c1C/C=C(\\C)CCC(=O)OCCN1CCOCC1)C(=O)OC2", "note": "[mycophenolate mofetil hydrochloride]", "values": [{"measurement": "increase in solubility over the monohydrate salt form", "setting": "[4]", "result": "two-fold"}, {"measurement": "stability characteristics", "setting": "[5]", "result": "possessing the stability characteristics of the monohydrate salt form"}]}, {"compound": "Moxifloxacine Hydrochloride Methylene Dichloride Solvate", "values": [{"measurement": "hygroscopicity (water uptake)", "setting": "[1]; 1 day at 33% relative humidity", "result": "not hygroscopic"}, {"measurement": "stability / desolvation under air drying conditions", "setting": "[2]", "result": "stable and does not desolvate"}]}]}
